Data as given in ChEMBL document CHEMBL1149836, “Antifungal metabolites from the plant endophytic fungus Pestalotiopsis foedan” (2008).

Columns and labels:
Format in all cases: functional
Candida albicans = test: Antifungal activity against Candida albicans ATCC 10231 at 100 ug/ml after 48 hrs by agar diffusion assay; settings: ATCC 10231, 48 h, read-out: IZ
Geotrichum candidum = test: Antifungal activity against Geotrichum candidum AS2.498 at 100 ug/ml after 48 hrs by agar diffusion assay; settings: read-out: IZ
Aspergillus fumigatus = test: Antifungal activity against Aspergillus fumigatus ATCC 10894 at 100 ug/ml after 48 hrs by agar diffusion assay; settings: ATCC 10894, 48 h, read-out: IZ

Row | SMILES | zone of inhibition at 100 µg/mL (Candida albicans) [mm] | zone of inhibition at 100 µg/mL (Geotrichum candidum) [mm] | zone of inhibition at 100 µg/mL (Aspergillus fumigatus) [mm]
1 | OC(Cn1cncn1)(Cn1cncn1)c1ccc(F)cc1F [FLUCONAZOLE] | 18 | 18 | 18
2 | C[C@H]1CCC[C@@]2(CC3=C(CO2)C(=O)[C@](C)(O)[C@@H](O)C3)O1 [PESTAFOLIDE A] |  |  | 10
3 | Cc1c(O)cc2c(c1O)C(=O)O[C@@H]2[C@H](C)O [PESTAPHTHALIDE A] | 13 |  | 
4 | Cc1c(O)cc2c(c1O)C(=O)O[C@H]2[C@H](C)O [PESTAPHTHALIDE B] |  | 11 | 
